Measured values as given in US8637246B2, “BRAF mutations conferring resistance to BRAF inhibitors” (Dana-Farber Cancer Institute, Inc., priority 2010, dated 2014).

What was measured:
BRAF-V600E-T521K = BRAF-V600E-T521K (Homo sapiens, UniProt P15056, T521K/V600E); assay: Western blot of p-MEK1/2 and p-ERK1/2 in transfected 293T cells (BRAF-V600E-T521K); assay type: cell-based; conditions: 293T cells transfected with BRAF-V600E-T521K; 0, 0.08, 0.4, 2, 5 and 10 μM for 16 hours; immunoblot (FIG. 8)
Chain of BRAF-V600E-T521K (P15056 whole entry T521K/V600E): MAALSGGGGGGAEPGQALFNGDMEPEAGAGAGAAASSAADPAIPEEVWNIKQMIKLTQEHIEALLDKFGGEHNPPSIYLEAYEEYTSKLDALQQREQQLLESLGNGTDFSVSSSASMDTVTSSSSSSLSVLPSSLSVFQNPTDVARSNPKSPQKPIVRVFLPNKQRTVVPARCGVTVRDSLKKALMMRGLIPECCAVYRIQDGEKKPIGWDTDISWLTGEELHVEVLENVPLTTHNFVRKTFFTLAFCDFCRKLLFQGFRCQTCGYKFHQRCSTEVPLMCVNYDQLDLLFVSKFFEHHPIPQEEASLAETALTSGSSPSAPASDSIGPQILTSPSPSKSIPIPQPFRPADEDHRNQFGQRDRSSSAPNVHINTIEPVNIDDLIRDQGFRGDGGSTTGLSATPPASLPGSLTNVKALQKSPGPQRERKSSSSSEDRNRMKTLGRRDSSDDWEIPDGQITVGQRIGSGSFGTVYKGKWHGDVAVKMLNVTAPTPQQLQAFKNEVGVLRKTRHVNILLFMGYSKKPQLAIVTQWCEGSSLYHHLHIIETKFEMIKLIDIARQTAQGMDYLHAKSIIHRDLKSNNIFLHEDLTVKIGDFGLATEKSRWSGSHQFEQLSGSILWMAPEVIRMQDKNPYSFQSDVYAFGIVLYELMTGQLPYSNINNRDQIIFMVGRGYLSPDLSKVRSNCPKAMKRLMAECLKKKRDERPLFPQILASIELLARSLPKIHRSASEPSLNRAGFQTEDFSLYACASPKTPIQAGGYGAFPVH
Experimental: (§1) 293T cells were transfected with 6 μg of pWZL(BLAST)-BRAF for each putative resistance allele and subsequently treated with a range of concentrations of the BRAF(V600E) inhibitor PLX4720 (0, 0.08, 0.4, 2, 5 and 10 μM) for 16 hours. Immunoblot studies were performed using standard procedures. Briefly, the treated cells were lysed with TNN buffer containing protease inhibitor (Roche), NaF and NaVO3 (1 mM each). Lysates were quantified (Bradford assay), denatured (95° C.), and resolved by SDS gel electrophoresis. Proteins was transferred to nitrocellulose membranes and probed with primary antibodies recognizing BRAF (Santa Cruz; 1:10,000 dilution), p-ERK1/2, p-MEK1/2 (Ser-217/221), and α-tubulin (Cell Signaling Technology; 1:1,000 dilution). After incubation with the appropriate secondary antibody (anti-rabbit or anti-mouse IgG, HRP-linked; 1:1,000 dilution) (Cell Signaling Technology), proteins were detected using chemiluminescence (Pierce).

BRAF V600E-P686Q = BRAF V600E-P686Q (Homo sapiens, UniProt P15056, P686Q/V600E); assay: Western blot of p-MEK1/2 and p-ERK1/2 in transfected 293T cells (BRAF V600E-P686Q); assay type: cell-based; conditions: 293T cells transfected with BRAF V600E-P686Q; 0, 0.08, 0.4, 2, 5 and 10 μM for 16 hours; immunoblot (FIG. 8)
Chain of BRAF V600E-P686Q (P15056 whole entry V600E/P686Q): as the sequence (P15056 whole entry T521K/V600E) above, with K521T, P686Q counted along it
Experimental: as §1

[1] = test system: A375 cells expressing a wild-type BRAF polypeptide
[2] = test system: A375 cells expressing a mutant BRAF polypeptide; conditions: A375 cells expressing a mutant BRAF polypeptide with one or more listed resistance mutations (A29V ... C748F)

| increase in phosphorylated MEK1/2 and ERK1/2 in the presence of increasing concentrations of inhibitor (BRAF-V600E-T521K) | increase in phosphorylated MEK1/2 and ERK1/2 in the presence of increasing concentrations of inhibitor (BRAF V600E-P686Q) | Compound | sensitivity of cells to the RAF inhibitor [1] | sensitivity of cells to the RAF inhibitor [2] |
| --- | --- | --- | --- | --- |
| sustained | sustained | CCCS(=O)(=O)Nc1ccc(F)c(C(=O)c2c[nH]c3ncc(Cl)cc23)c1F [PLX4720] |  |  |
|  |  | Cn1c(Nc2ccc(C(F)(F)F)cc2)nc2cc(Oc3ccnc(-c4ncc(C(F)(F)F)[nH]4)c3)ccc21 [RAF-265] | sensitive | resistant |
